Test in all cases: Minimal Inhibitory Concentration, in vitro
What all share (format): cell-based
What all share (design): unit not given here

For experiment [1], the system named is Klebsiella Pneumoniae MGH-2. The text has this: (§1) The compounds of the invention are new chemical compounds that are useful as pharmacological agents and especially as broad spectrum antibacterial agents. They are active in vitro against strains of both gram-positive and gram-negative bacteria.
(§2) Minimal Inhibitory Concentration

The test system of experiment [2] is Proteus Vulgaris 1810.
Text: as §1, §2

The test system of experiment [3] is Pseudomonas Aeruginosa #28.
Text: as §1, §2

The subject of experiment [4] is Enterobacter Cloacae IMM-11.
Text: as §1, §2

Experiment [5] relates to Pseudomonas Aeruginosa UI-18.
Text: as §1, §2

Experiment [6] deals with Staph Aureus UC-76.
Text: as §1, §2

Experiment [7] concerns Serratia Marcescens IMM-16.
Text: as §1, §2

Consider `CCC(=O)N[C@@H](C)C(=O)Nc1ccc(-c2ncc(C(=O)N[C@@H](C(=O)N[C@@H]3C(=O)N4[C@@H]3SC(C)(C)[C@@H]4C(=O)O)c3ccc(O)cc3)c(O)n2)cc1` [N-Propionyl-L-Alanyl, N-[2-[4-(N-Propionyl-L-alanylamino)phenyl]-4-hydroxy-5-pyrimidinylcarbonyl]amoxicillin], for which the “Minimal Inhibitory Concentration” value is on record as 50 in experiment [1]; 3.1 in experiment [2]; 1.6 in experiment [3]; 3.1 in experiment [4]; 0.8 in experiment [5]; 0.8 in experiment [6]. The “Minimal Inhibitory Concentration” value in experiment [7] is listed as 12.5.
Take “N-[2-[4-(N-Acetyl-DL-glutaminylamino)phenyl]-4-hydroxy-5-pyrimidinylcarbonyl]amoxicillin [N-Acetyl-L-Glutaminyl]”: the “Minimal Inhibitory Concentration” value in experiment [1] is over 50; in experiment [2] it was 0.8; in experiment [3], 3.1; in experiment [4], 12.5; in experiment [5], 3.1; in experiment [6], 3.1. Besides, in experiment [7], the “Minimal Inhibitory Concentration” value was 25.

For the origin of these results see patent US4267180A, “Novel antibacterial amide compounds and process means for producing the same” (Warner-Lambert Company, priority 1980, dated 1981).
